Molecular target: T1, recombinant PTP1B catalytic domain (Homo sapiens, UniProt P18031)
T1 construct: made in house
T1 sequence (P18031 3-277 limits assumed): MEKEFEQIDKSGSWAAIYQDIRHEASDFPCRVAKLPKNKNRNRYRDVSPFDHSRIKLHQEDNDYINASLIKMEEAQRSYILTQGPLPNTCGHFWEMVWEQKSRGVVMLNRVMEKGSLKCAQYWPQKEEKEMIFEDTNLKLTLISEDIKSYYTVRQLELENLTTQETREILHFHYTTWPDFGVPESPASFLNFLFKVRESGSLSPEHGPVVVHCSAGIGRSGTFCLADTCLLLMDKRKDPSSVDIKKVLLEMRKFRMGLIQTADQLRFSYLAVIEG
Test: PTP1B inhibition assay (pNPP substrate)
Assay type: biochemical
Settings: pNPP as substrate, absorbance at 405 nm, 37 °C; read-out: IC50, inhibitory activity against PTP1B
Description: The expressed and purified methods of recombinant PTP1B catalytic domain were the same as references (Liu et al., [2018]). The dephosphorylation of p-nitrophenyl phosphate (pNPP) generated the product pNP, which can be monitored at an absorbance for 405 nm. The compounds were pre-incubated with the enzyme at 37 °C for 5 min. […] After incubation at 37°C for 15 min, the reaction was […] using 0.5 M pNPP (12.5 μL). After initializing the enzymatic reaction, the plate was then read every 20 s for 15 min in the microplate reader at 405 nm. […] The equation used was: [(Ablank-Asample)/Ablank] × 100%. The IC50 values were determined by linear or non-linear regression analysis of the concentration-response data curve.

| IC50 [µM] | SMILES |
| --- | --- |
| 19 | CC(=O)OCC(CC/C=C(/CC(=O)c1cc(O)ccc1O)C(=O)O)CC/C=C(\C)COC(=O)/C=C/c1ccc(O)cc1 (stereo not shown) [Compound 3, Ganoduriporol H] |
| 20 | C/C(=C\CCC(CO)CCC/C(=C/C(=O)c1cc(O)ccc1O)C(=O)O)COC(=O)/C=C/c1ccc(O)c(O)c1 (stereo not shown) [Compound 2, Ganoduriporol G] |
| 17 | C/C(=C\CC/C(=C/CC/C(=C/C(=O)c1cc(O)ccc1O)C(=O)O)CO)COC(=O)/C=C/c1ccc(O)cc1 [Compound 1, Ganoduriporol F] |
| 23 | CC(=O)OCC(CC/C=C(\C)COC(=O)/C=C/c1ccc(O)cc1)CCC/C(=C/C(=O)c1cc(O)ccc1O)C(=O)O (stereo not shown) [Compound 4, Ganoduriporol I] |

From publication PMC7176929, “Meroterpenoids With Protein Tyrosine Phosphatase 1B Inhibitory Activities From the Fruiting Bodies of Ganoderma ahmadii” (Frontiers in Chemistry, 2020)
